What all share (assay type): cell-based
A short description of series [1]: Cytotoxicity in TZM-bl cells (XTT). Conditions: human, XTT, 3 days. How it is done:
(§1) The cytotoxicity of test compounds in TZM-bl cells was also measured by the XTT method described previously^7. […] The soluble intracellular formazan was quantitated colorimetrically at 450 nm 4 h later. The percent of cytotoxicity and the CC50 values were calculated as above. (See Table 4)
On the technique in general: Tetrazolium dyes change colour on reduction, which living cells bring about.

The test system of series [2] is HIV-1 pseudovirus pseudotyped with HXB2 Env. As to the kind of experiment: microbe, parasite or virus in culture. The following applies: single cycle assay, TZM-bl cells infected with HIV-1 pseudovirus pseudotyped with HXB2 Env.
The next series relates to TZM-bl cells. The experiment in a line: Cytotoxicity in TZM-bl cells (XTT). Conditions: XTT, 3 days. How it is done: as §1
[3] abbreviates: Human immunodeficiency virus 1, HXB2, TZM-bl.
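Throughout, for IC50: endpoint is IC50 for inhibition of pseudovirus infection of TZM-bl cells.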

For `Cc1nc(C(NC(=O)c2ccc(-c3ccc(Cl)c(F)c3)[nH]2)C2CCCCN2)sc1CO` (single isomer, unassigned) [Compound 20], the CC50 (usually the concentration at which the toxic effect on the cells reaches its halfway point) at 3 days in series [1] turned out to be 15.2 ± 0.2 µM.
`Cc1ccc(-c2ccc(C(=O)NC(c3nc(C)c(CO)s3)C3CCCCN3)[nH]2)cc1F` (single isomer, unassigned) [Compound 22]: the CC50 at 3 days in series [1] is no less than 36 µM.
The same measure, in the same setting: for `Cc1ccc(-c2ccc(C(=O)NC(c3nc(C)c(CCO)s3)C3CCCCN3)[nH]2)cc1F` (single isomer, unassigned) [Compound 24] the value was 28.8 ± 1 µM.
Take `Cc1nc(C(NC(=O)c2ccc(-c3ccc(Cl)c(F)c3)[nH]2)C2CCCCN2)sc1CCO` (single isomer, unassigned) [Compound 26]: in series [1], the CC50 at 3 days amounted to 16.1 ± 0.2 µM.
The same measure, in the same setting: for `Cc1nc(C(NC(=O)c2ccc(-c3ccc(Cl)cc3)[nH]2)C2CCCCN2)sc1CCO` (single isomer, unassigned) [Compound 28] the value was 17.3 ± 0.1 µM.
The same measure, in the same setting: for `Cc1ccc(-c2ccc(C(=O)NC(c3nc(C)c(CCCO)s3)C3CCCCN3)[nH]2)cc1F` (single isomer, unassigned) [Compound 30] the value was 17 ± 0.7 µM; for `Cc1nc(C(NC(=O)c2ccc(-c3ccc(Cl)c(F)c3)[nH]2)C2CCCCN2)sc1CCCO` (single isomer, unassigned) [Compound 31], 8.2 ± 0.3 µM.
Still for that read-out and setting: for `Cc1nc(C(NC(=O)c2ccc(-c3ccc(Cl)cc3)[nH]2)C2CCCCN2)[nH]c1CO` (single isomer, unassigned) [Compound 33] the value was 28 ± 0.5 µM; for `Cc1nc(C(NC(=O)c2ccc(-c3ccc(Cl)c(F)c3)[nH]2)C2CCCCN2)[nH]c1CO` (single isomer, unassigned) [Compound 35], 25 ± 0.5 µM; for `Cc1ccc(-c2ccc(C(=O)NC(c3nc(C)c(CO)[nH]3)C3CCCCN3)[nH]2)cc1F` (single isomer, unassigned) [Compound 37], 30 ± 0.3 µM.
Molecule `Cc1nc(C(CN)NC(=O)c2ccc(-c3ccc(Cl)cc3)[nH]2)sc1CO` (single isomer, unassigned) [Compound 39] showed a CC50 at 3 days in series [1] of no less than 34 µM.
The molecule `Cc1ccc(-c2ccc(C(=O)NC(CN)c3nc(C)c(CO)s3)[nH]2)cc1F` (single isomer, unassigned) [Compound 43] yielded a 50% cytotoxic concentration (CC50) at 3 days in series [1] of no less than 34 µM.
As to `Cc1nc(C(CNC(=N)N)NC(=O)c2ccc(-c3ccc(Cl)cc3)[nH]2)sc1CO` (single isomer, unassigned) [Compound 45], in series [1], the CC50 at 3 days was greater than 37 µM.
Still for that read-out and setting: for `Cc1nc(C(CNC(=N)N)NC(=O)c2ccc(-c3ccc(Cl)c(F)c3)[nH]2)sc1CO` (single isomer, unassigned) [Compound 48] the value was greater than 36 µM; for `Cc1ccc(-c2ccc(C(=O)NC(CNC(=N)N)c3nc(C)c(CO)s3)[nH]2)cc1F` (single isomer, unassigned) [Compound 49], greater than 37 µM; for `Cc1nc(C(CN)NC(=O)c2ccc(-c3ccc(Cl)c(F)c3)[nH]2)sc1CO` (single isomer, unassigned) [Compound 51], roughly 28 µM.
As for `CNCC(NC(=O)c1ccc(-c2ccc(Cl)c(F)c2)[nH]1)c1nc(C)c(CO)s1` (single isomer, unassigned) [Compound 56], the half-inhibitory concentration (IC50) – broadly, the concentration needed to halve the response being measured – in series [2] turned out to be 1.6 ± 0.6 µM. The CC50 at 3 days in series [1] is roughly 21 µM.
For the molecule `CNCC(NC(=O)c1ccc(-c2ccc(Cl)cc2)[nH]1)c1nc(C)c(CO)s1` (single isomer, unassigned) [Compound 58], the CC50 at 3 days in series [1] was roughly 37 µM.
The same measure, in the same setting: for `CC(=O)NCC(NC(=O)c1ccc(-c2ccc(Cl)c(F)c2)[nH]1)c1nc(C)c(COC(C)=O)s1` (single isomer, unassigned) [Compound 66] the value was greater than 40 µM; for `Cc1nc(C(CN(C)C)NC(=O)c2ccc(-c3ccc(Cl)c(F)c3)[nH]2)sc1CO` (single isomer, unassigned) [Compound 67], roughly 29 µM; for `Cc1ccc(-c2ccc(C(=O)NC(CCN(C)C)c3nc(C)c(CO)s3)[nH]2)cc1F` (single isomer, unassigned) [Compound 72], 36.4 ± 1 µM.
For the molecule `Cc1nc(C(CCN(C)C)NC(=O)c2ccc(-c3ccc(Cl)cc3)[nH]2)sc1CO` (single isomer, unassigned) [Compound 76], it took 21.7 ± 1 µM to reach half-maximal cytotoxicity in series [1] (CC50 at 3 days).
On the same count and under the same terms, for `Cc1nc(C(CCN)NC(=O)c2ccc(-c3ccc(Cl)c(F)c3)[nH]2)sc1CO` (single isomer, unassigned) [Compound 86] the value was 22.9 ± 0.6 µM.
In series [1], `Cc1nc(C(CN)NC(=O)c2cnc(-c3ccc(Cl)cc3)[nH]2)sc1CO` (single isomer, unassigned) [Compound 93] registered a CC50 at 3 days greater than 51 µM.
Same read-out and setting: for `Cc1nc(C(CN)NC(=O)c2ncc(-c3ccc(Cl)cc3)[nH]2)sc1CO` (single isomer, unassigned) [Compound 95] the value was greater than 51 µM; for `Cc1cc(C(=O)NC(CN)c2nc(C)c(CO)s2)[nH]c1-c1ccc(Cl)cc1` (single isomer, unassigned) [Compound 97], 5.2 ± 0.3 µM.
Molecule `Cc1nc(C(NC(=O)c2ccc(-c3ccc(Cl)cc3)[nH]2)C(C)(C)N)sc1CO` (single isomer, unassigned) [Compound 110] yielded an IC50 in series [2] of 1.1 ± 0.2 µM. Also, half-maximal cytotoxicity in the series on TZM-bl cells (CC50) was put at 20.6 ± 1.2 µM.
On the same counts, the results for `Cc1nc(C(NC(=O)c2ccc(-c3ccc(Cl)c(F)c3)[nH]2)C(C)(C)N)sc1CO` (single isomer, unassigned) [Compound 112] are 0.27 ± 0.04 µM and 13.9 ± 0.7 µM.
In turn, `Cc1ccc(-c2ccc(C(=O)NC(c3nc(C)c(CO)s3)C(C)(C)N)[nH]2)cc1F` (single isomer, unassigned) [Compound 114] had an IC50 in series [2] of 0.34 ± 0.02 µM. Moreover, in the series on TZM-bl cells, the CC50 amounted to 17.8 ± 0.3 µM.
Molecule `CNCC(NC(=O)c1ccc(-c2ccc(Cl)c(F)c2)[nH]1)c1ncc(CO)s1` (single isomer, unassigned) [Compound 115] returned an IC50 in series [2] (setting [3]) of 0.95 ± 0.03 µM. The same molecule gave a CC50 in the series with TZM-bl cells of 17.3 ± 0.5 µM.
On to `CNCC(NC(=O)c1ccc(-c2ccc(Cl)c(F)c2)[nH]1)c1ncc(CO)s1` (single isomer, unassigned) [Compound 116], for which the IC50 in series [2] came to 1.4 ± 0.05 µM. In the series on TZM-bl cells, the CC50 came to 17.4 ± 0.4 µM.
As to `CNCC(NC(=O)c1ccc(-c2ccc(C)c(F)c2)[nH]1)c1ncc(CO)s1` (single isomer, unassigned) [Compound 117], 1 ± 0.2 µM corresponded to half-maximal inhibition in series [2] (setting [3]) (IC50). The CC50 with TZM-bl cells came to 27.4 ± 0.8 µM.
In series [1], `NCC(NC(=O)c1ccc(-c2cc(F)c(Cl)c(F)c2)[nH]1)c1ncc(CO)s1` (single isomer, unassigned) [Compound 119] gave a CC50 at 3 days of 18 ± 0.5 µM.
Turning to `CC(C)(N)C(NC(=O)c1ccc(-c2ccc(Cl)c(F)c2)[nH]1)c1ncc(CO)s1` (single isomer, unassigned) [Compound 124], the IC50 in series [2] amounted to 0.46 ± 0.01 µM. In the series with TZM-bl cells, this molecule displayed a CC50 of 16.3 ± 0.6 µM.
Taken in the same sequence, the figures for `Cc1ccc(-c2ccc(C(=O)NC(c3ncc(CO)s3)C(C)(C)N)[nH]2)cc1F` (single isomer, unassigned) [Compound 126] were 0.54 ± 0.01 µM and 18.1 ± 0.7 µM.
With `CNCC(NC(=O)c1ccc(-c2cc(F)c(Cl)c(F)c2)[nH]1)c1ncc(CO)s1` (single isomer, unassigned) [Compound 127], inhibition in series [2] (setting [3]) was half-maximal at 0.42 ± 0.2 µM (IC50). For the same molecule, in the series on TZM-bl cells, the midpoint of cytotoxicity, the CC50, lay at 13.9 ± 0.7 µM.
Molecule `CNCC(NC(=O)c1ccc(-c2cc(F)c(Cl)c(F)c2)[nH]1)c1ncc(CO)s1` (single isomer, unassigned) [Compound 128] registered an IC50 in series [2] of 0.36 ± 0.04 µM. Moreover, half-maximal cytotoxicity with TZM-bl cells (CC50) was put at 10.4 ± 0.8 µM.
`COc1ccc(-c2ccc(C(=O)NC(CN)c3ncc(CO)s3)[nH]2)cc1OC` (single isomer, unassigned) [Compound 130] had an IC50 in series [2] greater than 74.5 µM. Also, in the series with TZM-bl cells, the CC50 is greater than 74.5 µM.
Consider `O=C(NC(c1ccccc1)c1ccc[nH]1)c1ccc(-c2ccc(Cl)cc2)[nH]1` (stereo not drawn) [Compound 1], for which the CC50 at 3 days in series [1] is greater than 53 µM.
Turning to `Nc1nc(CNC(=O)c2ccc(-c3ccc(Cl)cc3)[nH]2)n[nH]1` [Compound 2], the CC50 at 3 days in series [1] was greater than 63 µM.
In series [1], `N=C(N)Nc1ccc(CC(NC(=O)c2ccc(-c3ccc(Cl)cc3)[nH]2)C(=O)N2CCOCC2)cc1` (stereo not drawn) [Compound 3] had a CC50 at 3 days greater than 36 µM.
For the molecule `N=C(N)NCCCC(NC(=O)c1ccc(-c2ccc(Cl)cc2)[nH]1)C(=O)NCCO` (stereo not drawn) [Compound 4], the CC50 at 3 days in series [1] is greater than 44 µM.
Same read-out and setting: for `N=C(N)NCCCC(NC(=O)c1ccc(-c2ccccc2)[nH]1)C(=O)NCCO` (stereo not drawn) [Compound 5] the value was greater than 47 µM.
Still for that read-out and setting: for `CS(=O)(=O)NCCNC(=O)C(CCCNC(=N)N)NC(=O)c1ccc(-c2ccc(Cl)cc2)[nH]1` (stereo not drawn) [Compound 6] the value was greater than 37 µM; for `CS(=O)(=O)NCCNC(=O)C(CCCNC(=N)N)NC(=O)c1ccc(-c2ccccc2)[nH]1` (stereo not drawn) [Compound 7], greater than 43 µM; for `CN1CCN(NC(=O)C(CCCNC(=N)N)NC(=O)c2ccc(-c3ccc(Cl)cc3)[nH]2)CC1` (stereo not drawn) [Compound 8], greater than 42 µM.
On the same count and under the same terms, for `N=C(N)NCCCC(NC(=O)c1ccc(-c2ccc(Cl)cc2)[nH]1)C(=O)NN1CCOCC1` (stereo not drawn) [Compound 9] the value was greater than 40 µM.
In series [1], `N=C(N)NCCCC(NC(=O)c1ccc(-c2ccccc2)[nH]1)C(=O)NN1CCOCC1` (stereo not drawn) [Compound 10] gave a CC50 at 3 days greater than 43 µM.
On the same count and under the same terms, for `Cc1n[nH]c(C)c1CNC(=O)c1ccc(-c2ccc(Cl)cc2)[nH]1` [Compound 11] the value was roughly 60 µM; for `Cc1nccn1Cc1ccc(CNC(=O)c2ccc(-c3ccc(Cl)cc3)[nH]2)o1` [Compound 12], 22 ± 0.4 µM; for `CCN(CC)Cc1ccc(OC)c(CNC(=O)c2ccc(-c3ccc(Cl)cc3)[nH]2)c1` [Compound 13], 14.2 ± 1 µM.
Consider `NS(=O)(=O)c1ccc(CCNC(=O)c2ccc(-c3ccc(Cl)cc3)[nH]2)cc1` [Compound 14], for which the CC50 at 3 days in series [1] was greater than 50 µM.
`Cc1nc(C(NC(=O)c2ccc(-c3ccc(Cl)cc3)[nH]2)C2CCCCN2)sc1CCCO` (stereo not drawn) [Compound 32] displayed a CC50 at 3 days in series [1] of 13.7 ± 1 µM.
As to `NCCNC(=O)c1ccc(-c2ccc(Cl)c(F)c2)[nH]1` [Compound 71], in series [1], it took 19.4 ± 0.9 µM to reach half-maximal cytotoxicity (CC50 at 3 days).

Values taken from patent publication US11059808B2, “Substituted phenylpyrrolecarboxamides with therapeutic activity in HIV” (New York Blood Center, Inc., priority 2014, dated 2021).
